Measured values reported in patent US10835533B2, “1 -((3S,4R)-4-(3-fluorophenyl)-1-(2-methoxyethyl)pyrrolidin-3-yl)-3-(4-methyl-3-(2-methylpyrimidin-5-yl)-1-phenyl-1H-pyrazol-5-yl)urea as a TrkA kinase inhibitor” (Array BioPharma Inc., priority 2014, dated 2020).

Experiments:
Assay in all cases: KinaseProfiler kinase profiling
Type in all cases: biochemical
Conditions in all cases: 10 μM, ATP near Km
ARK5 = biological target: T1, ARK5 (Homo sapiens, UniProt O60285)
T1 construct: purchased Millipore, Inc. (KinaseProfiler service)
Outline: (§1)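 Each kinase reaction contained ATP approximating its own Km plus 10 μM test compound. Duplicates were run, and the mean percent-of-control value is listed.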

AURKA = biological target: T2, AURKA (Homo sapiens, UniProt O14965)
T2 construct: purchased Millipore, Inc. (KinaseProfiler service)
Outline: as §1

BrSK1 = biological target: T3, BrSK1 (Homo sapiens, UniProt Q8TDC3)
T3 construct: purchased Millipore, Inc. (KinaseProfiler service)
Outline: as §1

CDK2/cyclinA = biological target: T4, CDK2/cyclinA (Homo sapiens, UniProt P24941)
T4 construct: purchased Millipore, Inc. (KinaseProfiler service)
Outline: as §1

CHK2 = biological target: T5, CHK2 (Homo sapiens, UniProt O96017)
T5 construct: purchased Millipore, Inc. (KinaseProfiler service)
Outline: as §1

CK1_y = system: CK1_y
Outline: as §1

CK2alpha2 = biological target: T6, CK2alpha2 (Homo sapiens, UniProt P19784)
T6 construct: purchased Millipore, Inc. (KinaseProfiler service)
Outline: as §1

DAPK2 = biological target: T7, DAPK2 (Homo sapiens, UniProt Q9UIK4)
T7 construct: purchased Millipore, Inc. (KinaseProfiler service)
Outline: as §1

DDR2 = biological target: T8, DDR2 (Homo sapiens, UniProt Q16832)
T8 construct: purchased Millipore, Inc. (KinaseProfiler service)
Outline: as §1

EphB4 = biological target: T9, EphB4 (Homo sapiens, UniProt P54760)
T9 construct: purchased Millipore, Inc. (KinaseProfiler service)
Outline: as §1

ErbB4 = biological target: T10, ErbB4 (Homo sapiens, UniProt Q15303)
T10 construct: purchased Millipore, Inc. (KinaseProfiler service)
Outline: as §1

FAK = biological target: T11, FAK (Homo sapiens, UniProt Q05397)
T11 construct: purchased Millipore, Inc. (KinaseProfiler service)
Outline: as §1

Flt4 = biological target: T12, Flt4 (Homo sapiens, UniProt P35916)
T12 construct: purchased Millipore, Inc. (KinaseProfiler service)
Outline: as §1

GRK6 = biological target: T13, GRK6 (Homo sapiens, UniProt P43250)
T13 construct: purchased Millipore, Inc. (KinaseProfiler service)
Outline: as §1

GRK7 = biological target: T14, GRK7 (Homo sapiens, UniProt Q8WTQ7)
T14 construct: purchased Millipore, Inc. (KinaseProfiler service)
Outline: as §1

Hck = biological target: T15, Hck (Homo sapiens, UniProt P08631)
T15 construct: purchased Millipore, Inc. (KinaseProfiler service)
Outline: as §1

IKKalpha = biological target: T16, IKKalpha (Homo sapiens, UniProt O15111)
T16 construct: purchased Millipore, Inc. (KinaseProfiler service)
Outline: as §1

IR = biological target: T17, IR (Homo sapiens, UniProt P06213)
T17 construct: purchased Millipore, Inc. (KinaseProfiler service)
Outline: as §1

IR Activated = biological target: T18, IR Activated (Homo sapiens, UniProt P06213)
T18 construct: purchased Millipore, Inc. (KinaseProfiler service)
Outline: as §1

KIT = biological target: T19, KIT (Homo sapiens, UniProt P10721)
T19 construct: purchased Millipore, Inc. (KinaseProfiler service)
Outline: as §1

MAPKAP-K3 = biological target: T20, MAPKAP-K3 (Homo sapiens, UniProt Q16644)
T20 construct: purchased Millipore, Inc. (KinaseProfiler service)
Outline: as §1

MARK2 = biological target: T21, MARK2 (Homo sapiens, UniProt Q7KZI7)
T21 construct: purchased Millipore, Inc. (KinaseProfiler service)
Outline: as §1

MKK4_m = biological target: T22, MKK4_m (Mus musculus, UniProt P47809)
T22 construct: purchased Millipore, Inc. (KinaseProfiler service)
Outline: as §1

MRCKbeta = biological target: T23, MRCKbeta (Homo sapiens, UniProt Q9Y5S2)
T23 construct: purchased Millipore, Inc. (KinaseProfiler service)
Outline: as §1

MSK1 = biological target: T24, MSK1 (Homo sapiens, UniProt O75582)
T24 construct: purchased Millipore, Inc. (KinaseProfiler service)
Outline: as §1

MYLK = biological target: T25, MYLK (Homo sapiens, UniProt Q15746)
T25 construct: purchased Millipore, Inc. (KinaseProfiler service)
Outline: as §1

MuSK = biological target: T26, MuSK (Homo sapiens, UniProt O15146)
T26 construct: purchased Millipore, Inc. (KinaseProfiler service)
Outline: as §1

PAK2 = biological target: T27, PAK2 (Homo sapiens, UniProt Q13177)
T27 construct: purchased Millipore, Inc. (KinaseProfiler service)
Outline: as §1

PKCalpha = biological target: T28, PKCalpha (Homo sapiens, UniProt P17252)
T28 construct: purchased Millipore, Inc. (KinaseProfiler service)
Outline: as §1

PKCeta = biological target: T29, PKCeta (Homo sapiens, UniProt P24723)
T29 construct: purchased Millipore, Inc. (KinaseProfiler service)
Outline: as §1

PrKX = biological target: T30, PrKX (Homo sapiens, UniProt P51817)
T30 construct: purchased Millipore, Inc. (KinaseProfiler service)
Outline: as §1

ROCK-II = biological target: T31, ROCK-II (Homo sapiens, UniProt O75116)
T31 construct: purchased Millipore, Inc. (KinaseProfiler service)
Outline: as §1

Rse = biological target: T32, Rse (Homo sapiens, UniProt Q06418)
T32 construct: purchased Millipore, Inc. (KinaseProfiler service)
Outline: as §1

Rsk3 = biological target: T33, Rsk3 (Homo sapiens, UniProt Q15349)
T33 construct: purchased Millipore, Inc. (KinaseProfiler service)
Outline: as §1

Rsk4 = biological target: T34, Rsk4 (Homo sapiens, UniProt Q9UK32)
T34 construct: purchased Millipore, Inc. (KinaseProfiler service)
Outline: as §1

SRPK1 = biological target: T35, SRPK1 (Homo sapiens, UniProt Q96SB4)
T35 construct: purchased Millipore, Inc. (KinaseProfiler service)
Outline: as §1

STK33 = biological target: T36, STK33 (Homo sapiens, UniProt Q9BYT3)
T36 construct: purchased Millipore, Inc. (KinaseProfiler service)
Outline: as §1

TrkA = biological target: T37, TrkA (Homo sapiens, UniProt P04629)
T37 construct: purchased Millipore, Inc. (KinaseProfiler service)
Outline: as §1

ZAP-70 = biological target: T38, ZAP-70 (Homo sapiens, UniProt P43403)
T38 construct: purchased Millipore, Inc. (KinaseProfiler service)
Outline: as §1

p38delta = biological target: T39, p38delta (Homo sapiens, UniProt O15264)
T39 construct: purchased Millipore, Inc. (KinaseProfiler service)
Outline: as §1

p38gamma = biological target: T40, p38gamma (Homo sapiens, UniProt P53778)
T40 construct: purchased Millipore, Inc. (KinaseProfiler service)
Outline: as §1

T33 sequence (Q15349 whole entry): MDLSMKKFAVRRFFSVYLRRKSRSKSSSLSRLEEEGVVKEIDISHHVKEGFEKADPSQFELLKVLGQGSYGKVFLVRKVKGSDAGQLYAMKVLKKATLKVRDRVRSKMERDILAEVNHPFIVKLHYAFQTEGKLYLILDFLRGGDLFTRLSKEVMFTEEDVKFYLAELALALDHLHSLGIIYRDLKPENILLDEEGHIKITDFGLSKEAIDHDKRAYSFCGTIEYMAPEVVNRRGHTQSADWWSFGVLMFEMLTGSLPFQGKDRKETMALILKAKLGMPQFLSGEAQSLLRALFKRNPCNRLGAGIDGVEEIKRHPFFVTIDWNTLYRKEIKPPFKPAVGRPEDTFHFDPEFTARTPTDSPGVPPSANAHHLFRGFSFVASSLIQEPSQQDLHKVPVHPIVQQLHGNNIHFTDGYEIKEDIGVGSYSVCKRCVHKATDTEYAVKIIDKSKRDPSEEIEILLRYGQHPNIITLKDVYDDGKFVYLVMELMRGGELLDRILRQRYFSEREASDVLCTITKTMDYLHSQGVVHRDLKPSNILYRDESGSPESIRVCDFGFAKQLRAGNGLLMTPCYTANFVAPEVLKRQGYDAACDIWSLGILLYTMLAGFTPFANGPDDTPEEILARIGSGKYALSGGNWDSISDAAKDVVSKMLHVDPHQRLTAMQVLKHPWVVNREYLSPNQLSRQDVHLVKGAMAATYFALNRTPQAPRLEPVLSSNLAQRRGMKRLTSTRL
T6 sequence (P19784 whole entry): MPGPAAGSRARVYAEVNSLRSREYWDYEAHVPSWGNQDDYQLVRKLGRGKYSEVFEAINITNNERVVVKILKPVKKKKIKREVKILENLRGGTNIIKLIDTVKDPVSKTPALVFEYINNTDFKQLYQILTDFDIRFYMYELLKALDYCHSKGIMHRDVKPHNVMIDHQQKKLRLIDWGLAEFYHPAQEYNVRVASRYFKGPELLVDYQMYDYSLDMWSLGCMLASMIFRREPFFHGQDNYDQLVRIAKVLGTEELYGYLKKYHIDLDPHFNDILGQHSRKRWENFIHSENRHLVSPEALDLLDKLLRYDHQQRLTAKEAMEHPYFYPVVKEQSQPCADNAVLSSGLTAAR
T36 sequence (Q9BYT3 whole entry): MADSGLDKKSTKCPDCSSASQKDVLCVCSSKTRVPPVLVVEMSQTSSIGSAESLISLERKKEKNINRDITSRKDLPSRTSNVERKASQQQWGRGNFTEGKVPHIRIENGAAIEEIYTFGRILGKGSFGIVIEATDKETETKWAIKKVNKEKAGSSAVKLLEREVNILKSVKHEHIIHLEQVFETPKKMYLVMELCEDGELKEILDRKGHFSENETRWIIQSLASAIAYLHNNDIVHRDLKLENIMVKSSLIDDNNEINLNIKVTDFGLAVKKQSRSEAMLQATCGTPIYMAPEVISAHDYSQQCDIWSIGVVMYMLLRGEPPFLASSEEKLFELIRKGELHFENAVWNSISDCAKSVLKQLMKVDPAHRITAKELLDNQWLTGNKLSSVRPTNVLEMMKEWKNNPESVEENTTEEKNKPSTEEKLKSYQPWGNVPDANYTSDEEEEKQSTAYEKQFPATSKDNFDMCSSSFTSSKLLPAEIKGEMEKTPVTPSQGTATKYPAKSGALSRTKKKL
T35 sequence (Q96SB4 whole entry): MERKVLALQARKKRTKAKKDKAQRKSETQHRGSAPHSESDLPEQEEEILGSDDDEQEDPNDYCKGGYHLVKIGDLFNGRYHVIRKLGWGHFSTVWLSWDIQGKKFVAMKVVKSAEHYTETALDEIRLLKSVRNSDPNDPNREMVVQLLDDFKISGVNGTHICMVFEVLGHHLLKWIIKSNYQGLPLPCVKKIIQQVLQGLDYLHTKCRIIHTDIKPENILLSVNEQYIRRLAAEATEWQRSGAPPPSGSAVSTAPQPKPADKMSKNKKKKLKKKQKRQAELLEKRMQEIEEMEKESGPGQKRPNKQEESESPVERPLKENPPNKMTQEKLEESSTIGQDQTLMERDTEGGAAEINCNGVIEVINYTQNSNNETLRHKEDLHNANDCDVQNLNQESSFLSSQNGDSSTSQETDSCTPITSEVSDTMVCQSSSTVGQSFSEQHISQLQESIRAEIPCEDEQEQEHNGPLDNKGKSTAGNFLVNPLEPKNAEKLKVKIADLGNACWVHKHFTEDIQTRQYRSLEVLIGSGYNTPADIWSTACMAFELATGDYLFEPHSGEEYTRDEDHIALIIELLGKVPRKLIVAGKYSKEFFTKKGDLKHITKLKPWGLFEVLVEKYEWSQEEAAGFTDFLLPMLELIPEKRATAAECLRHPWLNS
T23 sequence (Q9Y5S2 whole entry): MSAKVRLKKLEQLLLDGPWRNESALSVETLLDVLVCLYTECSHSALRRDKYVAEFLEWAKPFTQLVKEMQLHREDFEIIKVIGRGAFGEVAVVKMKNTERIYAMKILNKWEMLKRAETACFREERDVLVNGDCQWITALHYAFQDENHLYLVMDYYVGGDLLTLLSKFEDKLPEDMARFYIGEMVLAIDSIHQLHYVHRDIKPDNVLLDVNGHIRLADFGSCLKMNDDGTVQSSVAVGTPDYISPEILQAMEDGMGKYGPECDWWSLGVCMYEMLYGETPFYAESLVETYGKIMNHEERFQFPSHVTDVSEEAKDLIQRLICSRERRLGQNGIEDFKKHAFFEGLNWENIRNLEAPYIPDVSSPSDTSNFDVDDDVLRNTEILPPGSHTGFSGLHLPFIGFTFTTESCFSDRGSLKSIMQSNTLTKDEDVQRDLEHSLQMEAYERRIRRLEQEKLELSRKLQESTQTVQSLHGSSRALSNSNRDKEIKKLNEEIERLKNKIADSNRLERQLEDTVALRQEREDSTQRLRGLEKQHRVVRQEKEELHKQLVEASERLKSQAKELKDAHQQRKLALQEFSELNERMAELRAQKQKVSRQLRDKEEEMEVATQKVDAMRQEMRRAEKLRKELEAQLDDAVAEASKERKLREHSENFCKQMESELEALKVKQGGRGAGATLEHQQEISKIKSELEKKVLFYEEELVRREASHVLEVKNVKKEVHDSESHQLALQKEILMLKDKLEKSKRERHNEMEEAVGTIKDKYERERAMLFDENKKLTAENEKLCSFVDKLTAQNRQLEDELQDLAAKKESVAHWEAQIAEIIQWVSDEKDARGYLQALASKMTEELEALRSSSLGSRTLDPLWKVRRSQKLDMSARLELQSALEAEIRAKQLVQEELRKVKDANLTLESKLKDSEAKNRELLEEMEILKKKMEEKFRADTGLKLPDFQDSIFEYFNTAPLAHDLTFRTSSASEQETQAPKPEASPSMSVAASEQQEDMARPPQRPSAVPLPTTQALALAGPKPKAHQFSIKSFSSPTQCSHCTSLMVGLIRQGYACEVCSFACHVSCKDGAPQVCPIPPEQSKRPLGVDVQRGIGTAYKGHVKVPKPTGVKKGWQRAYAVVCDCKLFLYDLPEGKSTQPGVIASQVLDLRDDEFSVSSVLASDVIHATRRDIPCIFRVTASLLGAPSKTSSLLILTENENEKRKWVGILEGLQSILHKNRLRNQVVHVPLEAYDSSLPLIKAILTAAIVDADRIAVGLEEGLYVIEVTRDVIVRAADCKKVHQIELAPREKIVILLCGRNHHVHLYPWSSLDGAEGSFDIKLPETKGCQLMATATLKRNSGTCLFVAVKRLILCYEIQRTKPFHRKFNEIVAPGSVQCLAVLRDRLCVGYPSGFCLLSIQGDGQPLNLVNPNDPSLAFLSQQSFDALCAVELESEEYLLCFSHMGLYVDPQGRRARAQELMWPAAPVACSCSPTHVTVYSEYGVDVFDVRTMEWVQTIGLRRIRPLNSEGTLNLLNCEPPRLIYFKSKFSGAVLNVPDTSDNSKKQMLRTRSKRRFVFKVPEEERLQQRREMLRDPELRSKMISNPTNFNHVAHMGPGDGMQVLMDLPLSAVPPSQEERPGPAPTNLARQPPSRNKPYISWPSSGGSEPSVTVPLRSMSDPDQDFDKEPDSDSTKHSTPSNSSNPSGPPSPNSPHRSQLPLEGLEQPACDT
T13 sequence (P43250 whole entry): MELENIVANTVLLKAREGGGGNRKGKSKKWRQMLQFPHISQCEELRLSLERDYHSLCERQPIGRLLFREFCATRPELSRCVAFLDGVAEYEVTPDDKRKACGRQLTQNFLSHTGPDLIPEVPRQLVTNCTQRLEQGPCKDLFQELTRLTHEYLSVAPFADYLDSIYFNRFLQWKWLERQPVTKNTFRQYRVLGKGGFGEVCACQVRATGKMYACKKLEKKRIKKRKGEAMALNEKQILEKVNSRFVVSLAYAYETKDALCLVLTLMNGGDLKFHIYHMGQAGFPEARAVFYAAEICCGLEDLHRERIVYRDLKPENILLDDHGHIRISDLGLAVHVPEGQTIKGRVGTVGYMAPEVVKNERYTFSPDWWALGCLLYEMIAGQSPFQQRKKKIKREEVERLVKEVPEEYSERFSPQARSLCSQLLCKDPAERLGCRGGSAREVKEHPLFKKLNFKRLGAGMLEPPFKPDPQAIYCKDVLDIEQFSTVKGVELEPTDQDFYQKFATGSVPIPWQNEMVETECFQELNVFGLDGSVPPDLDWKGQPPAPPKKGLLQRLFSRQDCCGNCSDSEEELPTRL
T22 sequence (P47809 whole entry): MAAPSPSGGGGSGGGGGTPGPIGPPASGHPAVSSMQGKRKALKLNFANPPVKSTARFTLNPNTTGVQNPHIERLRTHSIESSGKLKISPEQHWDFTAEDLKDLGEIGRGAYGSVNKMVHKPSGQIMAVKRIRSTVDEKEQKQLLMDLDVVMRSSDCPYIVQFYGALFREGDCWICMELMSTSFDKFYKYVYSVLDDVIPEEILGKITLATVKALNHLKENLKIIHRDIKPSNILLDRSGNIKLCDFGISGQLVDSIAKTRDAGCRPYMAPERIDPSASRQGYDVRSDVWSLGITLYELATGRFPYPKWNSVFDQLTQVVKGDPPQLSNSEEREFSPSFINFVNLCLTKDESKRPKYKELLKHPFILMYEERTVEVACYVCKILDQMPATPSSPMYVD

COCCN1C[C@@H](NC(=O)Nc2c(C)c(-c3cnc(C)nc3)nn2-c2ccccc2)[C@H](c2cccc(F)c2)C1 [Compound 1, 1-((3S,4R)-4-(3-fluorophenyl)-1-(2-methoxyethyl)pyrrolidin-3-yl)-3-(4-methyl-3-(2-methylpyrimidin-5-yl)-1-phenyl-1H-pyrazol-5-yl)urea]
Avg POC (ARK5): 104.5 POC
Avg POC (AURKA): 115 POC
Avg POC (BrSK1): 98 POC
Avg POC (CDK2/cyclinA): 94.5 POC
Avg POC (CHK2): 102.5 POC
Avg POC (CK1_y): 91.5 POC
Avg POC (CK2alpha2): 106 POC
Avg POC (DAPK2): 97 POC
Avg POC (DDR2): 121.5 POC
Avg POC (EphB4): 102 POC
Avg POC (ErbB4): 107.5 POC
Avg POC (FAK): 100.5 POC
Avg POC (Flt4): 98.5 POC
Avg POC (GRK6): 98 POC
Avg POC (GRK7): 101 POC
Avg POC (Hck): 108.5 POC
Avg POC (IKKalpha): 101.5 POC
Avg POC (IR): 84.5 POC
Avg POC (IR Activated): 105.5 POC
Avg POC (KIT): 97.5 POC
Avg POC (MAPKAP-K3): 99 POC
Avg POC (MARK2): 109.5 POC
Avg POC (MKK4_m): 125 POC
Avg POC (MRCKbeta): 106.5 POC
Avg POC (MSK1): 129 POC
Avg POC (MYLK): 106.5 POC
Avg POC (MuSK): 95 POC
Avg POC (PAK2): 105.5 POC
Avg POC (PKCalpha): 98.5 POC
Avg POC (PKCeta): 100 POC
Avg POC (PrKX): 115.5 POC
Avg POC (ROCK-II): 105.5 POC
Avg POC (Rse): 102.5 POC
Avg POC (Rsk3): 107.5 POC
Avg POC (Rsk4): 105.5 POC
Avg POC (SRPK1): 96 POC
Avg POC (STK33): 101 POC
Avg POC (TrkA): 2.5 POC
Avg POC (ZAP-70): 104.5 POC
Avg POC (p38delta): 105 POC
Avg POC (p38gamma): 114.5 POC
